Article PMC8733726, “Dioctanoyl Ultrashort Tetrabasic β-Peptides Sensitize Multidrug-Resistant Gram-Negative Bacteria to Novobiocin and Rifampicin” (Frontiers in Microbiology, 2021)
Converted amounts (≈) assume the structure as drawn. Read-outs that look alike come from different tables or passages of the source.

What was measured:
[1] = tested on: wild-type A. baumannii ATCC 17978; test: Checkerboard assay; type: cell-based, Acinetobacter baumannii; details: for MICcombo: antibiotic with dUSTBβP 3 at 8 μg/mL; for MIC: Acinetobacter baumannii, ATCC17978, 18 h, read-out: MICantibiotic
Excerpt: (§1) Overnight-grown bacterial culture diluted in saline to 0.5 McFarland turbidity was successively diluted 1:50 in MHB to achieve a final concentration of 5 × 10^5 CFU/mL for inoculation. The antibiotic and adjuvant were serially diluted 2-fold along the x-axis and y-axis, respectively, resulting in varying concentrations of both agents in each well. […] Confirmation of turbidity was done using an EMax Plus microplate reader (Molecular Devices, United States) at a wavelength of 590 nm. Wells comprising MHB alone or in the presence of bacterial cells were used as negative or positive controls, respectively. Fractional inhibitory concentration index (FICI) is determined by adding the FICs of both antibiotic and adjuvant. The FIC of the antibiotic is calculated by dividing the MIC of the antibiotic in the presence of the adjuvant by the MIC of the antibiotic alone. Similarly, the FIC of the adjuvant is calculated by dividing the MIC of the adjuvant in the presence of the antibiotic by the MIC of the adjuvant alone.

[2] = tested on: wild-type E. coli ATCC 25922; test: microbe, parasite or virus in culture; type: cell-based, Escherichia coli; details: for MICcombo: antibiotic with dUSTBβP 3 at 8 μg/mL; for MIC: Escherichia coli, ATCC25922, 18 h, read-out: MICantibiotic
Experimental: The adjuvant activities of dUSTBβPs were evaluated using checkerboard assay as previously described ([Berry et al., 2019]). Overnight-grown bacterial culture diluted in saline to 0.5 McFarland turbidity was successively diluted 1:50 in MHB to achieve a final concentration of 5 × 10^5 CFU/mL for inoculation. The antibiotic and adjuvant were serially diluted 2-fold along the x-axis and y-axis, respectively, resulting in varying concentrations of both agents in each well. Subsequently, the 96-well plate was incubated with equal volumes of bacterial inoculum at 37°C for 18 h. Confirmation of turbidity was done using an EMax Plus microplate reader (Molecular Devices, United States) at a wavelength of 590 nm. Wells comprising MHB alone or in the presence of bacterial cells were used as negative or positive controls, respectively. Fractional inhibitory concentration index (FICI) is determined by adding the FICs of both antibiotic and adjuvant. The FIC of the antibiotic is calculated by dividing the MIC of the antibiotic in the presence of the adjuvant by the MIC of the antibiotic alone. Similarly, the FIC of the adjuvant is calculated by dividing the MIC of the adjuvant in the presence of the antibiotic by the MIC of the adjuvant alone. FICI ≤ 0.5, 0.5 < x ≤ 4, and >4 were deemed synergistic, additive, and antagonistic, respectively ([Meletiadis et al., 2010]).

[3] = tested on: wild-type P. aeruginosa PAO1; test: microbe, parasite or virus in culture; type: cell-based, Pseudomonas aeruginosa; details: for MICcombo: antibiotic with dUSTBβP 3 at 8 μg/mL; for MIC: Pseudomonas aeruginosa, read-out: MICantibiotic
Excerpt: as §1

[4] = tested on: MDR P. aeruginosa clinical isolates; test: Resistance phenotype (MICs of antibiotics) of MDR clinical isolates; type: cell-based, Pseudomonas aeruginosa; details: Pseudomonas aeruginosa, read-out: MIC
[5] = tested on: MDR E. coli clinical isolates; test: as above; type: cell-based, Escherichia coli; details: Escherichia coli, read-out: MIC
[6] = tested on: MDR E. cloacae clinical isolates; test: as above; type: cell-based, Enterobacter cloacae; details: Enterobacter cloacae, read-out: MIC
[7] = tested on: MDR A. baumannii clinical isolates; test: as above; type: cell-based, Acinetobacter baumannii; details: Acinetobacter baumannii
[8] = tested on: MDR K. pneumoniae clinical isolates; test: as above; type: cell-based, Klebsiella pneumoniae; details: Klebsiella pneumoniae, read-out: MIC
[9] = ATCC 17978, antibiotic alone (Supplementary Table 7)
[10] = ATCC 25922, antibiotic alone (Supplementary Table 7)
[11] = 18 h, PAO1, antibiotic alone (Supplementary Table 7)

Row | Compound | MICcombo ([1]; ATCC 17978) | MIC [1, 9] | MICcombo ([2]; ATCC 25922) | MIC [2, 10] | MICcombo ([3]; PAO1) | MIC [3, 11] | other results
1 | CC(=O)NC[C@H]1CN(c2ccc(N3CCOCC3)c(F)c2)C(=O)O1 [Linezolid] | 64 µg/mL | 512 µg/mL | 16 µg/mL | 256 µg/mL | 256 µg/mL | 1020 µg/mL (≈ 3040 µM) | 
2 | CN(C)c1ccc(O)c2c1C[C@H]1C[C@H]3[C@H](N(C)C)C(O)=C(C(N)=O)C(=O)[C@@]3(O)C(O)=C1C2=O [Minocycline] | 0.25 µg/mL | 0.5 µg/mL | 0.063 µg/mL | 0.5 µg/mL | 1 µg/mL | 16 µg/mL (≈ 35 µM) | MIC ([4]; 259-96196): 32 µg/mL (≈ 69.9 µM); MIC ([4]; 262-101856): 64 µg/mL (≈ 140 µM); MIC ([4]; 264-104354): 32 µg/mL (≈ 69.9 µM); MIC [4]; 91433: 16 µg/mL (≈ 35 µM); MIC [4]; 114228: 32 µg/mL (≈ 69.9 µM); MIC ([5]; 94393 (mcr-1 +)): 2 µg/mL (≈ 4.37 µM); MIC ([5]; 94474 (mcr-1 +)): 64 µg/mL (≈ 140 µM); MIC [5]; 107115: 32 µg/mL (≈ 69.9 µM); MIC [6]; 117029: 32 µg/mL (≈ 69.9 µM); MIC [7]: 0.125 µg/mL (≈ 0.273 µM); MIC ([7]; 110193, read-out: MIC): 1 µg/mL (≈ 2.19 µM); MIC ([7]; AB027, read-out: MIC): 0.25 µg/mL (≈ 0.546 µM); MIC ([7]; AB031, read-out: MIC): 0.25 µg/mL (≈ 0.546 µM); MIC ([7]; LAC-4, read-out: MIC): 4 µg/mL (≈ 8.74 µM); MIC [8]; 113250: 2 µg/mL (≈ 4.37 µM); MIC [8]; 113254: 2 µg/mL (≈ 4.37 µM); MIC [8]; 116381: 64 µg/mL (≈ 140 µM)
3 | COc1c(N2C[C@@H]3CCCN[C@@H]3C2)c(F)cc2c(=O)c(C(=O)O)cn(C3CC3)c12 [Moxifloxacin] | > 0.125 µg/mL | > 0.125 µg/mL | 0.001 µg/mL | 0.016 µg/mL | 0.5 µg/mL | 2 µg/mL (≈ 4.98 µM) | MIC ([4]; 259-96196): > 16 µg/mL; MIC ([4]; 262-101856): > 16 µg/mL; MIC ([4]; 264-104354): > 16 µg/mL; MIC [4]; 91433: 16 µg/mL (≈ 39.9 µM); MIC ([5]; 94393 (mcr-1 +)): 1 µg/mL (≈ 2.49 µM); MIC ([5]; 94474 (mcr-1 +)): 16 µg/mL (≈ 39.9 µM); MIC [5]; 107115: 16 µg/mL (≈ 39.9 µM); MIC [6]; 117029: ≤ 0.06 µg/mL; MIC [6]; 118564: 0.12 µg/mL (≈ 0.299 µM); MIC [6]; 121187: 1 µg/mL (≈ 2.49 µM); MIC ([7]; 110193, read-out: MIC): ≤ 1 µg/mL; MIC ([7]; AB027, read-out: MIC): 8 µg/mL (≈ 19.9 µM); MIC ([7]; AB031, read-out: MIC): 0.12 µg/mL (≈ 0.299 µM); MIC [8]; 113250: ≤ 0.06 µg/mL; MIC [8]; 113254: ≤ 0.06 µg/mL; MIC [8]; 116381: > 16 µg/mL
4 | CCN1CCN(C(=O)N[C@@H](C(=O)N[C@@H]2C(=O)N3[C@@H]2SC(C)(C)[C@@H]3C(=O)O)c2ccccc2)C(=O)C1=O [Piperacillin] | 32 µg/mL | > 128 µg/mL | 0.125 µg/mL | 2 µg/mL | 4 µg/mL | 4 µg/mL (≈ 7.73 µM) | 
5 | C=C[C@]1(C)C[C@@H](OC(=O)CO)[C@]2(C)[C@H](C)CC[C@]3(CCC(=O)[C@H]32)[C@@H](C)[C@@H]1O [Pleuromutilin] | 4 µg/mL | 256 µg/mL | 0.5 µg/mL | 64 µg/mL | 256 µg/mL | 1020 µg/mL (≈ 2710 µM) | 
6 | COc1cc(Cc2cnc(N)nc2N)cc(OC)c1OC [Trimethoprim] | > 128 µg/mL | > 128 µg/mL | 64 µg/mL | 512 µg/mL | 32 µg/mL | 128 µg/mL (≈ 441 µM) | 
7 | CN[C@H](CC(C)C)C(=O)N[C@H]1C(=O)N[C@@H](CC(N)=O)C(=O)N[C@H]2C(=O)N[C@H]3C(=O)N[C@H](C(=O)N[C@H](C(=O)O)c4cc(O)cc(O)c4-c4cc3ccc4O)[C@H](O)c3ccc(c(Cl)c3)Oc3cc2cc(c3O[C@@H]2O[C@H](CO)[C@@H](O)[C@H](O)[C@H]2O[C@H]2C[C@](C)(N)[C@H](O)[C@H](C)O2)Oc2ccc(cc2Cl)[C@H]1O [Vancomycin] | 32 µg/mL |  | 64 µg/mL |  | 256 µg/mL |  | MIC [1]: > 128 µg/mL; MIC [2]: 128 µg/mL; MIC ([3]; PAO1, 18 h): 256 µg/mL (≈ 177 µM)
